# Read-outs that look alike come from different tables or passages of the source.
# How the values were obtained:
# [1] = tested on: Enterobacter cloace 1321E; assay: MIC by agar dilution, in vitro activity test; assay type: cell-based; conditions: 37° C., 18 to 20 hours, read-out: Minimal Inhibitory Concentration (MIC)
# Method: (§1) These MIC values were determined by agar dilution method: that is, two-fold dilutions of each of the test compounds were made and dispersed in a Mueller-Hinton Broth medium. Standard test strain which had the 10^6 CFU per ml was inoculated on the medium, and was incubated at 37° C. for 18 to 20 hours.
# [2] = tested on: Enterobacter cloace P99; assay: MIC by agar dilution, in vitro activity test; assay type: cell-based; conditions: P99, 20 h, read-out: Minimal Inhibitory Concentration (MIC)
# Method: as §1
# [3] = tested on: Escherichia coli 078; assay: MIC by agar dilution, in vitro activity test; assay type: cell-based; conditions: 37° C., 18 to 20 hours, read-out: Minimal Inhibitory Concentration (MIC)
# Method: as §1
# [4] = tested on: Escherichia coli 1507E; assay: MIC by agar dilution, in vitro activity test; assay type: cell-based; conditions: read-out: Minimal Inhibitory Concentration (MIC)
# Method: as §1
# [5] = tested on: Escherichia coli DC 0; assay: MIC by agar dilution, in vitro activity test; assay type: cell-based; conditions: DC0, 37° C., 18 to 20 hours, read-out: Minimal Inhibitory Concentration (MIC)
# Method: as §1
# [6] = tested on: Escherichia coli DC 2; assay: MIC by agar dilution, in vitro activity test; assay type: cell-based; conditions: DC2, 37° C., 18 to 20 hours, read-out: Minimal Inhibitory Concentration (MIC)
# Method: as §1
# [7] = tested on: Escherichia coli TEM; assay: MIC by agar dilution, in vitro activity test; assay type: cell-based; conditions: 20 h, read-out: Minimal Inhibitory Concentration (MIC)
# Method: as §1
# [8] = tested on: Klebsiella aerogenes 1082E; assay: MIC by agar dilution, in vitro activity test; assay type: cell-based; conditions: 37° C., 18 to 20 hours, read-out: Minimal Inhibitory Concentration (MIC)
# Method: as §1
# [9] = tested on: Klebsiella aerogenes 1522E; assay: MIC by agar dilution, in vitro activity test; assay type: cell-based; conditions: read-out: Minimal Inhibitory Concentration (MIC)
# Method: as §1
# [10] = tested on: Pseudomonas aeruginosa 1592E; assay: MIC by agar dilution, in vitro activity test; assay type: cell-based; conditions: 37° C., 18 to 20 hours, read-out: Minimal Inhibitory Concentration (MIC)
# Method: as §1
# [11] = tested on: Pseudomonas aeruginosa 1771M; assay: MIC by agar dilution, in vitro activity test; assay type: cell-based; conditions: 20 h, read-out: Minimal Inhibitory Concentration (MIC)
# Method: as §1
# [12] = tested on: Pseudomonas aeruginosa 9071; assay: MIC by agar dilution, in vitro activity test; assay type: cell-based; conditions: 37° C., 18 to 20 hours, read-out: Minimal Inhibitory Concentration (MIC)
# Method: as §1
# [13] = tested on: Salmonella typhimurium; assay: MIC by agar dilution, in vitro activity test; assay type: cell-based; conditions: Salmonella enterica, 37° C., 18 to 20 hours, read-out: Minimal Inhibitory Concentration (MIC)
# Method: as §1
# [14] = tested on: Staphylococcus aureus 285; assay: MIC by agar dilution, in vitro activity test; assay type: cell-based; conditions: 37° C., 18 to 20 hours, read-out: Minimal Inhibitory Concentration (MIC)
# Method: as §1
# [15] = tested on: Staphylococcus aureus 503; assay: MIC by agar dilution, in vitro activity test; assay type: cell-based; conditions: 37° C., 18 to 20 hours, read-out: Minimal Inhibitory Concentration (MIC)
# Method: as §1
# [16] = tested on: Staphylococcus aureus SG511; assay: MIC by agar dilution, in vitro activity test; assay type: cell-based; conditions: 37° C., 18 to 20 hours, read-out: Minimal Inhibitory Concentration (MIC)
# Method: as §1
# [17] = tested on: Streptococcus faecium MD 8b; assay: MIC by agar dilution, in vitro activity test; assay type: cell-based; conditions: Enterococcus faecium, MD8B, 20 h, read-out: Minimal Inhibitory Concentration (MIC)
# Method: as §1
# [18] = tested on: Streptococcus pyogenes 71A; assay: MIC by agar dilution, in vitro activity test; assay type: cell-based; conditions: 37° C., 18 to 20 hours, read-out: Minimal Inhibitory Concentration (MIC)
# Method: as §1
# [19] = tested on: Pseudomonas aeruginosa 1771; assay: MIC by agar dilution, in vitro activity test; assay type: cell-based; conditions: 37° C., 18 to 20 hours, read-out: Minimal Inhibitory Concentration (MIC)
# Method: These MIC values were determined by agar dilution method: that is, two-fold dilutions of each of the test compounds were made and dispersed in a Mueller-Hinton Broth medium.
# [20] = tested on: Staphylococcus aureus, Escherichia coli and Pseudomonas aeruginosa; assay: MIC by agar dilution, comparison in words; assay type: cell-based; conditions: against Staphylococcus aureus, vs Cefotaxime
# Method: as §1
# [21] = tested on: Pseudomonas aeruginosa; assay: MIC by agar dilution, comparison in words; assay type: cell-based; conditions: against Pseudomonas aeruginosa; vs Cefpirome
# Method: as §1
# [22] = Acute toxicity study; assay type: in vivo; conditions: in vivo
# Method: (§2) In order to illustrate usefulness of the compounds of the present invention, acute toxicity test of the compounds synthesized in the above Examples were carried out. Each dose of the compounds dissolved in saline and buffer solution (PH=7.0) was administered by intravenous or subcutaneous injection. Mortalities of the animals was recorded seven days latter.
# (§3) .asterisk-pseud. Mouse: Male ICR strain, 4 weeks
# [23] = tested on: Pseudomonas aeruginosa 9027; assay: MIC by agar dilution, in vitro activity test; assay type: cell-based; conditions: 37° C., 18 to 20 hours, read-out: Minimal Inhibitory Concentration (MIC)
# Method: as §1
# [24] = tested on: Streptococcus pyogenes 77A; assay: MIC by agar dilution, in vitro activity test; assay type: cell-based; conditions: 37° C., 18 to 20 hours, read-out: Minimal Inhibitory Concentration (MIC)
# Method: as §1
# [25] = tested on: Mouse; assay: Acute toxicity study; assay type: in vivo; conditions: 10080 min
# Method: as §2, §3
# [26] = Escherichia coli 1507E, agar dilution, 37° C., 18 to 20 hours
# [27] = Klebsiella aerogenes 1522E, agar dilution, 37° C., 18 to 20 hours
# [28] = iv, i.v, male ICR mouse, 4 weeks, mortality at seven days, read-out: LD50 i.v
# [29] = sc, s.c, male ICR mouse, 4 weeks, mortality at seven days, read-out: LD50 s.c
SMILES,MIC [1] [µg/mL],MIC [2] [µg/mL],MIC [3] [µg/mL],MIC [5] [µg/mL],MIC [6] [µg/mL],MIC [7] [µg/mL],MIC [8] [µg/mL],MIC [10] [µg/mL],MIC [11] [µg/mL],MIC [12] [µg/mL],MIC [13] [µg/mL],MIC [14] [µg/mL],MIC [15] [µg/mL],MIC [16] [µg/mL],MIC [17] [µg/mL],MIC [18] [µg/mL],MIC [19] [µg/mL],MICs compared with Cefotaxime [20],"MIC [4, 26] [µg/mL]","MIC [9, 27] [µg/mL]",further results
"Cc1ncsc1C[N+](C)(C)C/C=C/C1=C(C(=O)[O-])N2C(=O)[C@@H](NC(=O)/C(=N\OCCF)c3nsc(N)n3)[C@H]2SC1 [Example 14, 7β-[(Z)-2-(5-amino-1,2,4-thiadiazol-3-yl)-2-fluoroethoxyiminoacetamido]-3-[(E)-3-[(4-methylthiazol-5-yl)-methyldimethylammonio]-1-propen-1-yl]3-cephem-4-carboxylate]",0.012,0.4,0.012,< 0.006,0.05,0.025,3.1,3.1,0.4,12.5,0.1,0.8,0.8,0.4,> 100,0.05,3.1,superior to that of Cefotaxime,,,"MIC ([4]; Escherichia coli, 1507E, 20 h): 0.025 µg/mL; MIC ([9]; Klebsiella aerogenes, 1522E, 20 h): 0.025 µg/mL"
"CC[N+](C)(CC=CC(N)=O)C/C=C/C1=C(C(=O)[O-])N2C(=O)[C@@H](NC(=O)/C(=N\OC)c3nsc(N)n3)[C@H]2SC1 (stereo partly drawn) [Example 13, 7β-[(Z)-2-(5-amino-1,2,4-thiadiazol-3-yl)-2-methoxyiminoacetamido]-3-[(E)-3-[(1-carbamoyl-1-propen-3-yl)-3-ethylmethylammonio]-1-propen-1-yl]3-cephem-4-carboxylate]",0.05,1.6,0.05,0.025,0.2,0.05,3.1,1.6,0.4,3.1,0.2,0.8,0.8,0.8,> 100,0.025,1.6,,0.1,0.2,"MICs compared with Cefpirome [21]: superior to that of Cefpirome; LD50 at 168 h ([22]; mouse, iv, i.v, male ICR mouse, 4 weeks, mortality at seven days, read-out: LD50 i.v): > 2000 mg/kg; LD50 at 168 h ([22]; mouse, iv, intravenous routes, read-out: acute toxicity in intravenous routes): > 2000 mg/kg; LD50 at 168 h ([22]; mouse, sc, s.c, male ICR mouse, 4 weeks, mortality at seven days, read-out: LD50 s.c): > 3000 mg/kg"
"CC[N+](C)(CC=CC(N)=O)C/C=C/C1=C(C(=O)[O-])N2C(=O)[C@@H](NC(=O)/C(=N\OCCF)c3csc(N)n3)[C@H]2SC1 (stereo partly drawn) [Example 12, 7β-[(Z)-2-(2-aminothiazol-4-yl)-2-fluoroethoxyiminoacetamdo]-3-[(E)-3-[(1-carbamoyl-1-propen-3-yl)-3-ethylmethylammonio]-1-propen-1-yl]3-cephem-4-carboxylate]",0.05,1.6,0.025,< 0.006,0.05,0.05,3.1,6.3,0.8,,0.4,0.8,0.8,0.8,> 100,,6.3,superior to that of Cefotaxime,0.05,0.1,"MIC [23]: 12.5 µg/mL; MIC [24]: 0.025 µg/mL; LD50 at 168 h [22, 28]: > 2000 mg/kg; LD50 at 168 h [22, 29]: > 3000 mg/kg; acute toxicity in intravenous routes [25]: > 2000 mg/kg; acute toxicity in subcutaneous routes [25]: > 3000 mg/kg"
"CC[N+](C)(CC=CC(N)=O)C/C=C/C1=C(C(=O)[O-])N2C(=O)[C@@H](NC(=O)/C(=N\OCCF)c3nsc(N)n3)[C@H]2SC1 (stereo partly drawn) [Example 15, 7β-[(Z)-2-(5-amino-1,2,4-thiadiazol-3-yl)-2-fluoroethoxyiminoacetamido]-3-[(E)-3-[(1-carbamoyl-1-propen-3-yl)-3-ethylmethylammonio]-1-propen-1-yl]3-cephem-4-carboxylate]",0.05,0.8,0.025,0.012,0.1,0.05,3.1,3.1,0.8,3.1,0.2,0.8,0.8,0.8,> 100,0.025,3.1,,0.1,0.05,"LD50 at 168 h [22, 28]: > 2000 mg/kg; LD50 at 168 h [22, 29]: > 3000 mg/kg; acute toxicity in intravenous routes [25]: > 2000 mg/kg; acute toxicity in subcutaneous routes [25]: > 3000 mg/kg"

# — patent US6063778A, “Cephalosporin derivatives and processes for the preparation thereof” (Il-Dong Pharm. Co., Ltd., priority 1995, dated 2000)
